According to patent US9499495B2, “Quinazolines and azaquinazolines as dual inhibitors of RAS/RAF/MEK/ERK and PI3K/AKT/PTEN/mTOR pathways” (Asana Biosciences, LLC, priority 2013, dated 2016):

Tests used:
B-RAFV600E = molecular target: T1, B-RAFV600E (Homo sapiens, UniProt P15056, V600E); experiment: B-RAFV600E radiometric assay; type: biochemical; details: read-out: Kinase assay B-Raf
T1 construct: purchased Millipore, USA 14-557
In short: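 B-RAFV600E was preincubated 45 min at rt with compound in 1% DMSO. MEK-K97M (0.5 μg), 5 μM final cold ATP and [γ-32P]ATP were then added for 2 h at rt. Phosphorylated MEK was captured on P81 paper and scintillation-counted; IC50 came from a sigmoidal dose-response fit.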

mTOR kinase = molecular target: T2, mTOR kinase (Homo sapiens, UniProt P42345); experiment: mTOR kinase TR-FRET assay; type: biochemical
T2 construct: purchased Millipore, US
T2 sequence (P42345 1362-2549 limits assumed): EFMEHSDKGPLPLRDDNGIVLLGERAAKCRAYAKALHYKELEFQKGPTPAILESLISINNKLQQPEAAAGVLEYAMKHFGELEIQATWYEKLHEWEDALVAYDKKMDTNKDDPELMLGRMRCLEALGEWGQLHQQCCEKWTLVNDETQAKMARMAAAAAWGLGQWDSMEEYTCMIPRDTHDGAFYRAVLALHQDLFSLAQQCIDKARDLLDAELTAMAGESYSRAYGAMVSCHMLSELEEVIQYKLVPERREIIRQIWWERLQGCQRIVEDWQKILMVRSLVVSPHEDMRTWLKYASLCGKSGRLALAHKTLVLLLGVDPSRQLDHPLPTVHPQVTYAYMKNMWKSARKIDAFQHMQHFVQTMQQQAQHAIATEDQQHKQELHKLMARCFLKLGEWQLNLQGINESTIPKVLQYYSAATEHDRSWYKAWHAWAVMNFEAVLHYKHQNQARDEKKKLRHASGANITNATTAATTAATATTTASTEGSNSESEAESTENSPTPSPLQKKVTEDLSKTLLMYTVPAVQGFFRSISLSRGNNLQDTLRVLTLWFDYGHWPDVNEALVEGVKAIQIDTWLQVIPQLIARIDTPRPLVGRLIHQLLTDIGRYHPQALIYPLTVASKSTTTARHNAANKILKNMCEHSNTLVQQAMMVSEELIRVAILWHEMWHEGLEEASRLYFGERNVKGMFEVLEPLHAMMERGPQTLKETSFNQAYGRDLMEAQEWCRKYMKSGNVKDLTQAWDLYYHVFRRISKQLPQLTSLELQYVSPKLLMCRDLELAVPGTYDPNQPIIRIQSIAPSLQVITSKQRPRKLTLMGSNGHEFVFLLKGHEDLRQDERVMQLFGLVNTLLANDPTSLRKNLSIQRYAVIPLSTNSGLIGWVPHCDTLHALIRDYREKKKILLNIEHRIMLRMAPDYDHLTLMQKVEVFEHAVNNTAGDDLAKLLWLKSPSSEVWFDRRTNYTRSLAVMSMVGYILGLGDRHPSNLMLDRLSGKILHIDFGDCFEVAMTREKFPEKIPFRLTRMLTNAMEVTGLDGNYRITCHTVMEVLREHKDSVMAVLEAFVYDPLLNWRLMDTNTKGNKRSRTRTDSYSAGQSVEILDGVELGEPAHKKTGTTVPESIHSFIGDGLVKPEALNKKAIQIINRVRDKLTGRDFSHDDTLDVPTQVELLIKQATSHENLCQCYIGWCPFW
In short: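 TR-FRET with ULight-p70 S6K (Thr 389) peptide (50 nM) and 20 μM ATP in 50 mM HEPES pH 7.5, 1 mM EGTA, 3 mM MnCl2; compound pre-incubated with enzyme before substrate addition, reaction at rt, EDTA-stopped. Eu anti-phospho antibody read 665/615 nm; IC50 from sigmoidal dose-response fit.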

pERK in A375 cells = experiment: In Cell Western (ICW) assay, pERK in A375 cells; type: cell-based; details: Homo sapiens, A-375, 3 h treatment
In short: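 After a 3 h compound treatment at 37 °C, fixed RKO or A375 cells were probed for phospho-ERK1/2 (T202/Y204), phospho-S6RP or phospho-AKT T308 and detected with a Eu-tagged anti-rabbit antibody (ex 340/em 615 nm), with Hoechst signal as the cell-number correction. Inhibition was referenced to DMSO, and IC50 values came from sigmoidal dose-response curves.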

A375 cells = experiment: XTT assay for cell viability, A375 cells; type: cell-based; details: Homo sapiens, A-375, 72 h
In short: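 GI50 derived by sigmoidal dose-response fitting of proliferation normalised to DMSO control (100%). Readout: A450 after 2-3 h with XTT (1 mg/ml)/PMS (25 μM), following 72 h compound treatment at 37° C., 5% CO2 of cells plated at 1000-2000 per well the previous day.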

pERK in RKO cells = experiment: In Cell Western (ICW) assay, pERK in RKO cells; type: cell-based; details: Homo sapiens, 3 h treatment
Procedure: (§1) Cell lines A375, A2058 and RKO obtained from the ATCC as provided above, were grown, and after attaining ˜80% confluency were trypsinized, centrifuged and resuspended in fresh media. The cells were seeded at the specified density (20,000 to 50,000) in a 96-well format black-well clear bottom plate (Corning) and incubated overnight at 37° C. in a 5% CO2 incubator. The next day, compound dilutions of test compounds were prepared in 100% DMSO followed by dilutions in respective media. Treatment of test compounds was performed for 3 h at 37° C. in 5% CO2 incubator. Following 3 h drug treatment, the conditional media was discarded and the cells were washed once with cPBS (PBS containing 0.1% magnesium chloride hexahydrate and 0.1% anhydrous calcium chloride) and fixed with 4% paraformaldehyde in cPBS for 1 h at rt. After fixing, the cells were given three washes using cPBST (cPBS containing 0.1% Triton™ X-100 reagent) and then blocked using blocking solution (5% skimmed milk powder or 5% BSA prepared in cPBST) for 2 h at rt with shaking at 300 rpm. The cells were again washed thrice with cPBST and incubated with primary antibody phospho-p44/42 MAPK(Erk1/2)(Thr202/204) antibody (Cell Signaling, Catalog # 9101L), phospho S6 ribosomal protein (Cell Signaling, Catalog #4858L), phospho AKT (Thr 308) (Cell Signaling, Catalog #9275) or phospho AKT (Ser 473) (Cell Signaling, Catalog #4060L) in specified dilutions (1:500-1:2500), prepared in respective blocking solutions, in a racker overnight at 4° C. The next day, the cells were washed with 1× Delfia® wash buffer (4×1 wash) and incubated with secondary antibody (Delfia®-Eu-N1 labeled anti-rabbit antibody; PerkinElmer, Catalog #AD0105; dilutions: 1:2000 to 1:6000 in Delfia® assay buffer (PerkinElmer, Catalog #1244-111)) for 2 h at rt in the dark at 300 rpm. The cells were then given four washes with 1× Delfia® wash buffer and incubated with Wallac Delfia® Enhancement solution (100 μL; PerkinElmer, Catalog #1244-105) for 20 min at rt in the dark at 300 rpm. The fluorescence emission was then read at 615 nm with an excitation wavelength of 340 nm using a Victor V5 Fluorometer (Perkin Elmer, US). The cells were then washed once with 1×cPBS and incubated with 100 μL of 0.5 mg/mL of Hoechst 33258 dye prepared in cPBS and read at 460 nm with 355 nm excitation, thereby evaluating the correction factor.
(§2) The % inhibition for the test compounds of formula (I) (new chemical entities (NCEs)) was calculated keeping DMSO control as 0% and the IC50 values were determined using sigmoidal dose response curve fit in GraphPad Prism® v5 software.

RKO cells = experiment: XTT assay for cell viability, RKO cells; type: cell-based; details: Homo sapiens, 72 h
Procedure: Cell lines (A375 ATCC No. CRL-1619, A2058 ATCC No. CRL-11147 and RKO ATCC No. CRL-2577, American Type Culture Collection (ATCC), Manassas Va.) once attaining ˜80% confluency were trypsinized, centrifuged and resuspended in fresh media. Cells (1000-2000/per well) were seeded in 96-well plate and incubated over-night at 37° C. in a 5% CO2 incubator. Compound dilutions were prepared in 100% DMSO followed by dilutions in the respective media. The cells were treated with NCEs for 72 h at 37° C. in 5% CO2 incubator. After 72 h, freshly prepared XTT (1 mg/ml)/PMS (25 μM) solution was added, incubated for 2 to 3 h at 37° C. and the absorbance was measured at 450 nm using an ELISA plate reader. Keeping DMSO control as 100%, the effect of the compound to inhibit the cell proliferation was calculated and the GI50 values were determined using sigmoidal dose response curve fit in GraphPad Prism® v5 software.

pS6RP in RKO cells = experiment: In Cell Western (ICW) assay, pS6RP in RKO cells; type: cell-based; details: Homo sapiens, 3 h treatment
Procedure: as §1, §2

PI3Kα = molecular target: T3, PI3Kα (Homo sapiens, UniProt P42336); experiment: PI3 Kinase alpha TR-FRET assay; type: biochemical
T3 construct: made in house; host or cells: SF9 cells
T3 sequence (P42336 whole entry, species assumed): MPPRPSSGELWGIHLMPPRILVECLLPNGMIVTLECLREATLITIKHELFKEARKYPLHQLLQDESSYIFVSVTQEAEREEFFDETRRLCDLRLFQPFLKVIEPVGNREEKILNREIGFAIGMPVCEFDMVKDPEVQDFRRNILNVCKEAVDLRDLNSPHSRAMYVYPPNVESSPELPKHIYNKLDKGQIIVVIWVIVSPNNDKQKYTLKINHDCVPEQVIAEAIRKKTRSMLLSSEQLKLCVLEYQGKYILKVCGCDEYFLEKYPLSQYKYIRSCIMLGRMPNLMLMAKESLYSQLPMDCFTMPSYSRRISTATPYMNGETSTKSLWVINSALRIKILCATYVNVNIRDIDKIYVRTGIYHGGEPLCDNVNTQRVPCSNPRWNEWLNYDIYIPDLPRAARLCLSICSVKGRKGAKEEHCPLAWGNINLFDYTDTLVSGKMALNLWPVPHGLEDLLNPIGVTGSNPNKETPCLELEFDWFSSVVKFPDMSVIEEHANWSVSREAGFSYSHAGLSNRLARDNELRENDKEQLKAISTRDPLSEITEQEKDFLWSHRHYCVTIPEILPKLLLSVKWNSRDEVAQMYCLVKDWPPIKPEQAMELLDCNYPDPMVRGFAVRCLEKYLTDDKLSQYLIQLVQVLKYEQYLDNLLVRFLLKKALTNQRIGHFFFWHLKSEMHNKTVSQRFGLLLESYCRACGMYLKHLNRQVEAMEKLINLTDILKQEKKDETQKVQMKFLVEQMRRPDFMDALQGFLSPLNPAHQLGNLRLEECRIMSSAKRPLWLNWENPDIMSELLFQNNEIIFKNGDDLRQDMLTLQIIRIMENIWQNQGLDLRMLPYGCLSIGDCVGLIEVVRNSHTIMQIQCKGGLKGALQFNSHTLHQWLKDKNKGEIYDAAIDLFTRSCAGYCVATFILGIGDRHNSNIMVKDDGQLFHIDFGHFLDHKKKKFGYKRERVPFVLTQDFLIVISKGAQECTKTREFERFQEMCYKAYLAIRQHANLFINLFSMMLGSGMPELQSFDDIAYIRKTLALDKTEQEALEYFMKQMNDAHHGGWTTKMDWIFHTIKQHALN
T3 sequence (P27986 whole entry partner, species assumed): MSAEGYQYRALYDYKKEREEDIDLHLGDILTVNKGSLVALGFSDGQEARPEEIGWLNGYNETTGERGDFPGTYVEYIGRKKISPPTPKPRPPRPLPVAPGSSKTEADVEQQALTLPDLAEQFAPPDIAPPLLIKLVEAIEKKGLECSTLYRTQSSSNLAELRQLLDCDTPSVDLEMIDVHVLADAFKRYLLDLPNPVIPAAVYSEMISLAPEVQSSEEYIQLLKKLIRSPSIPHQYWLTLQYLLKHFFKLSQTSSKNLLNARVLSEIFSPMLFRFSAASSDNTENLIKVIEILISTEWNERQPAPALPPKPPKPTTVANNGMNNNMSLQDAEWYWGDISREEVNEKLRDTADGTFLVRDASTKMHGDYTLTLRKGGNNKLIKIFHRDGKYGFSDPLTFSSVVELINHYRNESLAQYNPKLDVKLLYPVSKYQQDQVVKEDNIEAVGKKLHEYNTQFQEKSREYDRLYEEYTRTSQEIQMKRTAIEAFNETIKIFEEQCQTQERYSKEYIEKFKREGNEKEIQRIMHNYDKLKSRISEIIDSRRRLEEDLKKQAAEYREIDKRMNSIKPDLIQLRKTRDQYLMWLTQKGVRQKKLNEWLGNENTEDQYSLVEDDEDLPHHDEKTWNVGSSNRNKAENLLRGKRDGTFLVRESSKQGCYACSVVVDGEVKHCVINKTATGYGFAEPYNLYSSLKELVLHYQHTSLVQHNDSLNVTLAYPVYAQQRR
Procedure: Compound inhibition for PI3Kα was determined in a homogeneous TR-FRET assay using a PI3Kα assay kit (Millipore, US, Catalog #33-016). The PI3 kinase catalyzes phosphorylation of […] (PIP2) to phosphatidylinositol 3,4,5-trisphosphate (PIP3) in the presence of ATP and Mg^2+. The PIP3 product is detected by displacement of biotin-PIP3 from an energy transfer complex consisting of Europium labeled anti-GST monoclonal antibody, a GST-tagged pleckstrin homology (PH) domain, biotinylated PIP3 and Streptavidin-Allophycocyanin (APC). Excitation of Europium in the complex results in an energy transfer to the APC and a fluorescence emission at 665 nm.
Compounds tested were dissolved in DMSO and directly distributed into 384-well plates at a volume of 0.5 μL. P110/P85a/PIP2 mixture (14.5 μL) was added to compound wells and incubated for 30 min at rt […]. P110/P85a was expressed in SF9 cells and purified in-house. 5 ng P110/P85a was used in the assay. The kinase reaction was started by the addition of ATP. The assay concentrations of both PIP2 and ATP were 40 μM. The reaction mixture was incubated for 30 min and was terminated by the addition of stop mix and detection mix. Fluorescence was measured at 615 and 665 nm upon excitation at 340 nm in a Victor V5 fluorometer (Perkin Elmer, US). The fluorescence emission ratio at 665 to 615 nm, proportional to the kinase activity, was plotted against the compound concentration to generate dose-response curves and IC50 values were determined.

T1 sequence (P15056 416-766 V600E limits assumed): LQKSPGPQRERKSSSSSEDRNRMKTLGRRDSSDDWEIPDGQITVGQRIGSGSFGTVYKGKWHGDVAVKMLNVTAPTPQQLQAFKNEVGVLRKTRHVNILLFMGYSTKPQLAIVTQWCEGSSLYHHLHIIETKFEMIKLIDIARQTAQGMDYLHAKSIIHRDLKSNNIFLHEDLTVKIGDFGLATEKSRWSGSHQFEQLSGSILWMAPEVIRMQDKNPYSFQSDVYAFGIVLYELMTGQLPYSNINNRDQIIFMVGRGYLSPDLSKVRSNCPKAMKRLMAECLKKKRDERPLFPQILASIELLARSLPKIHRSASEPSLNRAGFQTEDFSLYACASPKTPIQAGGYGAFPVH

Row | IC50 (B-RAFV600E) | IC50 (mTOR kinase) | IC50 (pERK in A375 cells) | IC50 (A375 cells) | IC50 (pERK in RKO cells) | IC50 (pS6RP in RKO cells) | IC50 (PI3Kα) | Structure (SMILES) | IC50 (RKO cells)
1 | 1 to 100 nM |  | 1 to 100 nM | 1 to 100 nM | 100 to 1000 nM |  | 1 to 100 nM | Nc1cc(C(F)(F)F)c(-c2nc(N3CCOCC3)c3nc(-c4cccc(NS(=O)(=O)c5cc(F)ccc5F)c4F)ccc3n2)cn1 [Example 104, N-(3-(2-(6-amino-4-(trifluoromethyl)pyridin-3-yl)-4-morpholinopyrido[3,2-d]pyrimidin-6-yl)-2-fluorophenyl)-2,5-difluorobenzenesulfonamide] | 
2 | 1 to 100 nM | 100 to 1000 nM |  |  | 1 to 100 nM |  |  | CNc1ncc(-c2nc(N3CCOC[C@H]3C)c3cc(-c4cccc(NS(=O)(=O)CCCF)c4F)cc(OC)c3n2)cn1 [Example 136, (R)-3-fluoro-N-(2-fluoro-3-(8-methoxy-2-(2-(methylamino)pyrimidin-5-yl)-4-(3-methylmorpholino)quinazolin-6-yl)phenyl)propane-1-sulfonamide] | 100 to 1000 nM
3 | 1 to 100 nM | 100 to 1000 nM | 1 to 100 nM | 100 to 1000 nM | 1 to 100 nM |  |  | CCOc1cc(-c2cccc(NS(=O)(=O)CCCF)c2F)cc2c(N3CCOC[C@H]3C)nc(-c3cnc(N)nc3)nc12 [Example 137, (R)-N-(3-(2-(2-aminopyrimidin-5-yl)-8-ethoxy-4-(3-methylmorpholino)quinazolin-6-yl)-2-fluorophenyl)-3-fluoropropane-1-sulfonamide] | 1 to 100 nM

Continued, compound first:

Row | Structure (SMILES) | IC50 (B-RAFV600E) | IC50 (mTOR kinase) | IC50 (pERK in A375 cells) | IC50 (A375 cells) | IC50 (pERK in RKO cells) | IC50 (pS6RP in RKO cells) | IC50 (PI3Kα) | IC50 (RKO cells)
4 | CNC(=O)Nc1ccc(-c2nc(N3CCOCC3)c3cc(-c4cccc(NS(=O)(=O)c5c(F)cccc5F)c4F)cc(OC)c3n2)cc1 [Example 1, 2,6-Difluoro-N-(2-fluoro-3-(8-methoxy-2-(4-(3-methylureido)phenyl)-4-morpholinoquinazolin-6-yl)phenyl)benzenesulfonamide] | 1 to 100 nM | 1 to 100 nM | 100 to 1000 nM | 100 to 1000 nM | 100 to 1000 nM |  |  | 1000 to 10000 nM
5 | COc1cc(-c2cccc(NS(=O)(=O)CCCF)c2F)cc2c(N3CCOCC3)nc(-c3cnc4[nH]ccc4c3)nc12 [Example 40, 3-fluoro-N-(2-fluoro-3-(8-methoxy-4-morpholino-2-(1H-pyrrolo[2,3-b]pyridin-5-yl)quinazolin-6-yl)phenyl)propane-1-sulfonamide] | 1 to 100 nM | 1 to 100 nM | 1 to 100 nM | 100 to 1000 nM |  | 100 to 1000 nM |  | 
6 | CC(C)Oc1cc(-c2cccc(NS(=O)(=O)CCCF)c2F)cc2c(N3CCOC[C@H]3C)nc(-c3cnc(N)nc3)nc12 [Example 64, (R)-N-(3-(2-(2-aminopyrimidin-5-yl)-8-isopropoxy-4-(3-methylmorpholino)quinazolin-6-yl)-2-fluorophenyl)-3-fluoropropane-1-sulfonamide] | 1 to 100 nM | 100 to 1000 nM | 1 to 100 nM | 1 to 100 nM |  | 100 to 1000 nM |  | 
7 | CCOc1cc(-c2cccc(NS(=O)(=O)CCCF)c2F)cc2c(N3CCOC[C@@H]3C)nc(-c3ccc(N)nc3)nc12 [Example 65, (S)-N-(3-(2-(6-aminopyridin-3-yl)-8-ethoxy-4-(3-methylmorpholino)quinazolin-6-yl)-2-fluorophenyl)-3-fluoropropane-1-sulfonamide] | 1 to 100 nM | 1 to 100 nM | 1 to 100 nM | 100 to 1000 nM |  | 100 to 1000 nM |  | 100 to 1000 nM
8 | COCCOc1cc(-c2cccc(NS(=O)(=O)CCCF)c2F)cc2c(N3CCOCC3)nc(-c3ccc(N)nc3)nc12 [Example 67, N-(3-(2-(6-aminopyridin-3-yl)-8-(2-methoxyethoxy)-4-morpholinoquinazolin-6-yl)-2-fluorophenyl)-3-fluoropropane-1-sulfonamide] | 1 to 100 nM | 1 to 100 nM | 100 to 1000 nM |  |  | 100 to 1000 nM |  | 1 to 100 nM
9 | COCCOc1cc(-c2cccc(NS(=O)(=O)CCCF)c2F)cc2c(N3CCOCC3)nc(-c3cnc(N)nc3)nc12 [Example 68, N-(3-(2-(2-aminopyrimidin-5-yl)-8-(2-methoxyethoxy)-4-morpholinoquinazolin-6-yl)-2-fluorophenyl)-3-fluoropropane-1-sulfonamide] | 1 to 100 nM | 1 to 100 nM | 1 to 100 nM |  |  | 100 to 1000 nM |  | 100 to 1000 nM
10 | C[C@@H]1COCCN1c1nc(-c2cnc(N)cc2F)nc2ccc(-c3cccc(NS(=O)(=O)CCCF)c3F)nc12 [Example 140, (R)-N-(3-(2-(6-amino-4-fluoropyridin-3-yl)-4-(3-methylmorpholino)pyrido[3,2-d]pyrimidin-6-yl)-2-fluorophenyl)-3-fluoropropane-1-sulfonamide] | 1 to 100 nM | 100 to 1000 nM | 100 to 1000 nM | 100 to 1000 nM | 1 to 100 nM |  |  | 100 to 1000 nM
